Laboratory results reported in US20090118285A1, “USE OF KCNQ-OPENERS FOR TREATING OR REDUCING THE SYMPTOMS OF SCHIZOPHRENIA” (H. Lundbeck A/S, priority 2006, published 2009).

Tested on: amphetamine-induced hyperactivity in the rat
Assay: Amphetamine challenge: d-amphetamine induced hyperactivity in rats
Assay type: in vivo
Conditions: test substance s.c. 30 min before d-amphetamine sulphate 0.5 mg/kg, motility 2 hours, read-out: Amphetamine antagonism ED50 ± std. dev.
From the text: D-amphetamine administration to rodents stimulates an increase in locomotor activity via mesolimbic dopamine receptors in the nucleus accumbens. While psychostimulant psychosis may not model all forms of schizophrenia, it may have applicability to paranoid schizophrenia and non-schizophrenic psychotic disorders (Krystal et al. pp. 214-224 in Neurobiology of Mental Illness ISBN 0-19-511265-2). It is believed that inhibition of the amphetamine-induced increase in locomotor activity is a reliable method for the evaluation of compounds with an antipsychotic potential (Ögren et al., European J. Pharmacol. 1984, 102, 459-464). In the following experiment, it was tested if the inhibition of spontaneous DA neurons in the mesolimbic circuit that was assessed above, could be translated into behavioral antipsychotic endpoint.
Subjects. Male Wistar rats (Taconic, Denmark) weighing 170-240 g are used. The animals were housed under a 12-hr light/dark cycle under controlled conditions for regular in-door temperature (21±2° C.) and humidity (55±5%) with food and tap water available ad libitum. Eight rats were used at each dose level and in the parallel control group receiving the vehicle to the test compound plus d-amphetamine and the group receiving vehicle injections only.

SMILES: CCOC(=O)Nc1ccc(NCc2ccc(F)cc2)cc1N
- ED50: 2.3 mg/kg
